Results from patent publication US9617225B2 (VIROSTATICS SRL, priority 2012, dated 2017).

target: human CDK9/CyclinT kinase complex (Homo sapiens (Human), UniProt P50750); test: In Vitro CDK9/CyclinT Assay (IMAP fluorescent polarization); assay type: biochemical; settings: not given
Method: In Vitro CDK9/CyclinT Assay
The activity of the compounds described in the present invention can be determined by measuring the phosphorylation of a fluorescently-labeled peptide by human CDK9/CyclinT kinase complex by fluorescent polarization using a commercially available IMAP Screening Express Assay Kit (Molecular devices).
Test compounds were diluted in 100% DMSO to 5 mM stock concentration, then further dilutions were made in H2O or 100% DMSO to desirable concentrations. Each reaction consisted of 5 nM enzyme: CDK9/CyclinT (Proqinase cat#0371-0345-1), 400 nM TAMRA-Rbtide (synthetic 15-mer peptide derived from human retinoblastoma tumor suppressor protein labeled with TAMRA dye, Genecust Europe), 12 μM ATP (=Kmapp, Sigma-Aldrich) and kinase buffer: 20 mM MOPS pH 7 (Sigma-Aldrich), 1 mM DTT (Sigma-Aldrich), 10 mM MgCl2 (Sigma-Aldrich), 0.01% Tween 20 (Sigma-Aldrich).
For each reaction, 4 or 6 μl containing TAMRA-Rbtide, ATP and kianse buffer were combined with 2 μl diluted compound in H2O or 0.028 μl compound in 100% DMSO. The kinase reaction was started by the addition of 2 μl diluted enzyme. The reaction was allowed to run for 1 hour at room temperature. The reaction was stopped by adding 15 μl IMAP beads (1:400 beads in progressive (100% buffer A) 1× buffer).

Chain of human CDK9/CyclinT kinase complex (P50750 whole entry): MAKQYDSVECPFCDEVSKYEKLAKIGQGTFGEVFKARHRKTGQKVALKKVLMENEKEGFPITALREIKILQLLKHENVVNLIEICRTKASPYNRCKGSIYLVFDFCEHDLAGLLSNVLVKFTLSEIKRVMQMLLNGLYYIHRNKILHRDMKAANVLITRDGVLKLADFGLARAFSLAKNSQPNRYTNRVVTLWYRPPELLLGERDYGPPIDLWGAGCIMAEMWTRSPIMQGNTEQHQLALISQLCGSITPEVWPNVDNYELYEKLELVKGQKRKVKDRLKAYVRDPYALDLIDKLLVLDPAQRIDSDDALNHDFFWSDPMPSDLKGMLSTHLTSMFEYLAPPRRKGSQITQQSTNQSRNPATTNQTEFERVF
Chain of human CDK9/CyclinT kinase complex (O60563 whole entry partner): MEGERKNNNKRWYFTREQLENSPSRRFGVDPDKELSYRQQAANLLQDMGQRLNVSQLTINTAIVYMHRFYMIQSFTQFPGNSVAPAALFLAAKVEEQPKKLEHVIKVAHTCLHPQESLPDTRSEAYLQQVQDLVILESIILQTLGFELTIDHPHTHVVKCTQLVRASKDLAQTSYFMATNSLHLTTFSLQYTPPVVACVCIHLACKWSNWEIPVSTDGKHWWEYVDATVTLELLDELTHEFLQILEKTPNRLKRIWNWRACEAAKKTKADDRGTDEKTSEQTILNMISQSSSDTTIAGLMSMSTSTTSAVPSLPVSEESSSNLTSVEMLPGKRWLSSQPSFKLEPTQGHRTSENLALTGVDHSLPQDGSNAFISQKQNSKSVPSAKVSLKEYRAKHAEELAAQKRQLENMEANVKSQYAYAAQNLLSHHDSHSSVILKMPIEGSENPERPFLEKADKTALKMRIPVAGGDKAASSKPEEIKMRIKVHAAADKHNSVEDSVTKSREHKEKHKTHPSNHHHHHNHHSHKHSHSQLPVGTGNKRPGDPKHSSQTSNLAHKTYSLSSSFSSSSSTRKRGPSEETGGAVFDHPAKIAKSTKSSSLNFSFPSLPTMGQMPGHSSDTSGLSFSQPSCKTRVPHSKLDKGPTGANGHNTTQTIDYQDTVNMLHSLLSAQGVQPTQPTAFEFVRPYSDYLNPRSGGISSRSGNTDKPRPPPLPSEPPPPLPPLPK

| SMILES | IC50 |
| --- | --- |
| COc1ccc(Nc2cc(-c3ccccc3OC)ncn2)cc1Br [Example 115, (3-Bromo-4-methoxy-phenyl)-[6-(2-methoxy-phenyl)-pyrimidin-4-yl]-amine] | < 10000 nM |
| COc1ccccc1-c1cc(Nc2ccc(Oc3ccccc3)c([N+](=O)[O-])c2)ncn1 [Example 96, [6-(2-Methoxy-phenyl)-pyrimidin-4-yl]-(3-nitro-4-phenoxy-phenyl)-amine] | > 10000 nM |
| COc1cc(Nc2cc(-c3ccccc3OC)ncn2)ccc1OCc1ccccc1 [Example 120, (4-Benzyloxy-3-methoxy-phenyl)-[6-(2-methoxy-phenyl)-pyrimidin-4-yl]-amine] | < 10000 nM |
| COc1ccccc1-c1cc(Nc2ccc(N(C)C)c(O)c2)ncn1 [Example 108, 2-Dimethylamino-5-[6-(2-methoxy-phenyl)-pyrimidin-4-ylamino]-phenol] | < 1000 nM |
| COc1ccc(Nc2cc(-c3ccccc3OC)ncn2)cc1OC(C)=O [Example 93, Acetic acid 2-methoxy-5-[6-(2-methoxy-phenyl)-pyrimidin-4-ylamino]-phenyl ester] | < 1000 nM |
| COc1cc(F)ccc1-c1cc(Nc2ccc(F)c([N+](=O)[O-])c2)ncn1 [Example 102, [6-(4-Fluoro-2-methoxy-phenyl)-pyrimidin-4-yl]-(4-fluoro-3-nitro-phenyl)-amine] | < 10000 nM |
| COc1ccccc1-c1cc(Nc2ccc(N(C)C)c(C(N)=O)c2)ncn1 [Example 109, 2-Dimethylamino-5-[6-(2-methoxy-phenyl)-pyrimidin-4-ylamino]-benzamide] | < 1000 nM |
| COc1ccc(Nc2cc(-c3ccccc3OC)ncn2)cc1C(=O)NCCCN1CCN(C)CC1 [Example 47, 2-Methoxy-5-[6-(2-methoxy-phenyl)-pyrimidin-4-ylamino]-N-[3-(4-methyl-piperazin-1-yl)-propyl]-benzamide] | < 1000 nM |
| COc1ccc(Nc2cc(-c3ccccc3OC)ncn2)cc1NC(C)=O [Example 50, N-{2-Methoxy-5-[6-(2-methoxy-phenyl)-pyrimidin-4-ylamino]-phenyl}-acetamide] | < 1000 nM |

same assay, conditions: Table 1

| SMILES | IC50 |
| --- | --- |
| COc1cc(F)c(F)cc1-c1cc(Nc2ccc(OC)c([N+](=O)[O-])c2)ncn1 [Example 82, [6-(4,5-Difluoro-2-methoxy-phenyl)-pyrimidin-4-yl]-(4-methoxy-3-nitro-phenyl)-amine] | > 10000 nM |
| COC(=O)Oc1cc(Nc2cc(-c3ccc(F)cc3OC)ncn2)ccc1OC [Example 125, Carbonic acid 5-[6-(4-fluoro-2-methoxy-phenyl)-pyrimidin-4-ylamino]-2-methoxy-phenyl ester methyl ester] | < 1000 nM |
| COC(=O)Nc1cc(Nc2cc(-c3ccccc3OC)ncn2)ccc1OC [Example 51, {2-Methoxy-5-[6-(2-methoxy-phenyl)-pyrimidin-4-ylamino]-phenyl}-carbamic acid methyl ester] | < 1000 nM |
| COc1ccc(Nc2cc(-c3cc(F)c(F)cc3OC)ncn2)cc1NC=O [Example 84, N-{5-[6-(4,5-Difluoro-2-methoxy-phenyl)-pyrimidin-4-ylamino]-2-methoxy-phenyl}-formamide] | < 1000 nM |
| COC(=O)Oc1cc(Nc2cc(-c3ccccc3OC)ncn2)ccc1OC [Example 95, Carbonic acid 2-methoxy-5-[6-(2-methoxy-phenyl)-pyrimidin-4-ylamino]-phenyl ester methyl ester] | < 1000 nM |
| COc1ccc(Nc2cc(-c3ccc(F)cc3OC(C)C)ncn2)cc1[N+](=O)[O-] [Example 85, [6-(4-Fluoro-2-isopropoxy-phenyl)-pyrimidin-4-yl]-(4-methoxy-3-nitro-phenyl)-amine] | < 1000 nM |
| COc1ccc(Nc2cc(-c3ccccc3OC)ncn2)cc1Nc1nc2ccccc2[nH]1 [Example 54, N^3-(1H-Benzoimidazol-2-yl)-4-methoxy-N^1-[6-(2-methoxy-phenyl)-pyrimidin-4-yl]-benzene-1,3-diamine] | < 10000 nM |
| COc1cc(F)ccc1-c1cc(Nc2ccc(N(C)C)c(C(N)=O)c2)ncn1 [Example 113, 2-Dimethylamino-5-[6-(4-fluoro-2-methoxy-phenyl)-pyrimidin-4-ylamino]-benzamide] | < 100 nM |
| COc1ccc(Nc2cc(-c3ccccc3OC)ncn2)cc1OC(=O)N(C)C [Example 94, Dimethyl-carbamic acid 2-methoxy-5-[6-(2-methoxy-phenyl)-pyrimidin-4-ylamino]-phenyl ester] | < 1000 nM |
| COc1ccc(Nc2cc(-c3ccccc3OC)ncn2)cc1C1=CCNCC1 [Example 116, [6-(2-Methoxy-phenyl)-pyrimidin-4-yl]-[4-methoxy-3-(1,2,3,6-tetrahydro-pyridin-4-yl)-phenyl]-amine] | < 100 nM |
| CCOc1ccc(Nc2cc(-c3ccccc3OC)ncn2)cc1O [Example 110, 2-Ethoxy-5-[6-(2-methoxy-phenyl)-pyrimidin-4-ylamino]-phenol] | < 1000 nM |
| CNC(=O)Nc1cc(Nc2cc(-c3ccccc3OC)ncn2)ccc1OC [Example 52, 1-{2-Methoxy-5-[6-(2-methoxy-phenyl)-pyrimidin-4-ylamino]-phenyl}-3-methyl-urea] | < 1000 nM |
| COc1ccc(Nc2cc(-c3ccccc3OC)ncn2)cc1C(=O)NCCO [Example 48, N-(2-Hydroxy-ethyl)-2-methoxy-5-[6-(2-methoxy-phenyl)-pyrimidin-4-ylamino]-benzamide] | < 1000 nM |

The remaining lines, values ahead:

| IC50 | SMILES |
| --- | --- |
| < 10000 nM | COc1ccccc1-c1cc(Nc2ccc([N+](=O)[O-])c(OC)c2)ncn1 [Example 58, (3-Methoxy-4-nitro-phenyl)-[6-(2-methoxy-phenyl)-pyrimidin-4-yl]-amine] |
| < 1000 nM | CCOc1ccccc1-c1cc(Nc2ccc(OC)c(O)c2)ncn1 [Example 124, 5-[6-(2-Ethoxy-phenyl)-pyrimidin-4-ylamino]-2-methoxy-phenol] |
| < 1000 nM | CNc1cc(Nc2cc(-c3ccccc3OC)ncn2)ccc1OC [Example 99, 4-Methoxy-N^1-[6-(2-methoxy-phenyl)-pyrimidin-4-yl]-N^3-methyl-benzene-1,3-diamine] |
| < 1000 nM | COc1cc(Nc2cc(-c3ccccc3OC)ncn2)ccc1NS(C)(=O)=O [Example 60, N-{2-Methoxy-4-[6-(2-methoxy-phenyl)-pyrimidin-4-ylamino]-phenyl}-methanesulfonamide] |
| < 10000 nM | COc1ccccc1-c1cc(Nc2cc(F)c(OC)c([N+](=O)[O-])c2)ncn1 [Example 87, (3-Fluoro-4-methoxy-5-nitro-phenyl)-[6-(2-methoxy-phenyl)-pyrimidin-4-yl]-amine] |
| < 10000 nM | COc1ccccc1-c1cc(Nc2ccc([N+](=O)[O-])c(F)c2)ncn1 [Example 57, (3-Fluoro-4-nitro-phenyl)-[6-(2-methoxy-phenyl)-pyrimidin-4-yl]-amine] |
| < 10000 nM | COc1ccc(F)cc1-c1cc(Nc2ccc(OC)c([N+](=O)[O-])c2)ncn1 [Example 74, [6-(5-Fluoro-2-methoxy-phenyl)-pyrimidin-4-yl]-(4-methoxy-3-nitro-phenyl)-amine] |
| < 1000 nM | CCOc1ccccc1-c1cc(Nc2ccc(OC)c([N+](=O)[O-])c2)ncn1 [Example 61, [6-(2-Ethoxy-phenyl)-pyrimidin-4-yl]-(4-methoxy-3-nitro-phenyl)-amine] |
| > 10000 nM | COc1ccc(Nc2cc(-c3cccc(F)c3OC)ncn2)cc1[N+](=O)[O-] [Example 80, [6-(3-Fluoro-2-methoxy-phenyl)-pyrimidin-4-yl]-(4-methoxy-3-nitro-phenyl)-amine] |
| < 1000 nM | COc1cc(F)ccc1-c1cc(Nc2ccc(F)c(N)c2)ncn1 [Example 104, 4-Fluoro-N^1-[6-(4-fluoro-2-methoxy-phenyl)-pyrimidin-4-yl]-benzene-1,3-diamine] |
| > 10000 nM | COc1ccc(Nc2cc(-c3ccccc3Oc3ccccc3)ncn2)cc1[N+](=O)[O-] [Example 76, (4-Methoxy-3-nitro-phenyl)-[6-(2-phenoxy-phenyl)-pyrimidin-4-yl]-amine] |
| < 100 nM | COc1ccc(Nc2cc(-c3ccccc3OC)ncn2)cc1NC=O [Example 55, N-{2-Methoxy-5-[6-(2-methoxy-phenyl)-pyrimidin-4-ylamino]-phenyl}-formamide] |
| < 10000 nM | CCOc1ccc(Nc2cc(-c3ccccc3OC)ncn2)cc1[N+](=O)[O-] [Example 100, (4-Ethoxy-3-nitro-phenyl)-[6-(2-methoxy-phenyl)-pyrimidin-4-yl]-amine] |
| < 100 nM | COc1cc(Nc2cc(-c3ccccc3OC)ncn2)ccc1O [Example 121, 2-Methoxy-4-[6-(2-methoxy-phenyl)-pyrimidin-4-ylamino]-phenol] |
| < 1000 nM | COc1ccc(Nc2cc(-c3ccc(F)cc3OC)ncn2)cc1NC(N)=O [Example 119, {5-[6-(4-Fluoro-2-methoxy-phenyl)-pyrimidin-4-ylamino]-2-methoxy-phenyl}-urea] |
| < 1000 nM | COc1cc(F)ccc1-c1cc(Nc2ccc(OC)c([N+](=O)[O-])c2)ncn1 [Example 63, [6-(4-Fluoro-2-methoxy-phenyl)-pyrimidin-4-yl]-(4-methoxy-3-nitro-phenyl)-amine] |
| < 1000 nM | CCOc1cc(F)ccc1-c1cc(Nc2ccc(OC)c([N+](=O)[O-])c2)ncn1 [Example 72, [6-(2-Ethoxy-4-fluoro-phenyl)-pyrimidin-4-yl]-(4-methoxy-3-nitro-phenyl)-amine] |
